Key:
[1] = old mice (21 months), 1.6 g/kg food glycine in diet for 6 weeks, vs old control diet and young (4 months) mice
From the text: 28 wild-type C57BL/6J mice of 21-months old and 12 wild-type C57BL/6J mice of 4-months old were kept in a temperature-and humidity-controlled environment with a 12:12-h light-dark cycle. Mice had access to nesting and enrichment materials and were provided with ad libitum access to water and food.
(§1) Mice underwent to a dietary supplementation for 6 weeks. The young control group (n=12) and old control group (n=14) received a commercial standard powdered diet (Safe 150, Safe Diets), with 20% humidity. […] At the end of the treatment, mice were euthanized with isoflurane after 2-hours fasting. Muscle gastrocnemius has been dissected and samples were snap frozen in liquid nitrogen and stored at −80° C.
Tissue pieces were excised on dry ice with liquid nitrogen cooled scalpels and kept at −80° C. until extraction. For extraction, samples were homogenized in 300 μL −20 ° C. methanol/water (5:3), including a fully labelled 13C yeast biomass as internal standard, using 5 mm stainless steel beads in a tissue grinder (Qiagen TissueLyser II) for up to 3 min at 23 Hz. […] The protein pellets were quantified with a bicinchoninic acid assay for later normalization and the polar phases, containing the metabolites of interest, were dried overnight in a vacuum centrifuge at 4° C. and 5 mbar and stored at −80° C. until analysis. […]

[2] = old mice (21 months), 1.6 g/kg food glycine in diet for 6 weeks, compared to old mice with control diet
Method: All animal experiments were performed according to national Swiss and EU ethical guidelines and approved by the local animal experimentation committee under license VD3519. 28 wild-type C57BL/6J mice of 21-months old and 12 wild-type C57BL/6J mice of 4-months old were kept in a temperature-and humidity-controlled environment with a 12:12-h light-dark cycle. Mice had access to nesting and enrichment materials and were provided with ad libitum access to water and food.
as §1
DNA extraction was performed on 100 mg of muscle using QIAGEN DNeasy Blood and Tissue kit (Cat. No: 69506) and following manufacturer recommendations. DNA was quantified using the DropSense technology (Unchained Labs). […]
Raw data were sent to the Clock Foundation, who performed the analyses to calculate the biological age of the samples. […] Data were plotted and analysed using R. One-tailed parametric t statistics was performed to test the effect of the glycine supplementation compared to the control diet.

Question: With `NCC(=O)O` [glycine] as the compound, how does the “glycine levels in muscle” value [1] read?
Answer: The value was “significantly restores them toward young levels”.

Question: And the “biological age (DNA methylation, muscle specific clock)” value [2]?
Answer: The value was “biological age decreases significantly”.

— US20260124166A1, “COMPOSITIONS AND METHODS USING GLYCINE TO REDUCE BIOLOGICAL AGE OF AN ADULT ANIMAL” (Société des Produits Nestlé S.A., priority 2022, published 2026)
